The text below walks through data of patent publication US6432963B1, “Pyrimidine-5-carboxamide derivatives” (Yamanouchi Pharmaceutical Co., Ltd., priority 1997, dated 2002).

Counter-ions that a name gives are not always drawn.

The target of this assay is T1, Syk tyrosine kinase (Homo sapiens, UniProt P43405).
T1 construct: FLAG tag (8 amino acid residues) (C); made in house; host or cells: Sf-9 insect cells (baculovirus, pFASTBAC HT)
In words: Syk tyrosine kinase inhibition test (SPA system). The settings on record: His-tag fused human Syk, Band 3 peptide, [γ-33P]ATP, room temperature 1 hour; read-out: inhibition activity as IC50 value upon Syk tyrosine kinase. The assay is classed as biochemical.
For the compound `NCCNc1ncc(C(N)=O)c(Nc2cccc([N+](=O)[O-])c2)n1` [2-(2-aminoethylamino)-4-(3-nitroanilino)pyrimidine-5-carboxamide], the IC50 (in general, the concentration that inhibits the measured activity by half) was at most 0.1 µM.

On to `NCCNc1ncc(C(N)=O)c(Nc2cccc(C(F)(F)F)c2)n1` [2-(2-aminoethylamino)-4-(3-trifluoromethylanilino)pyrimidine-5-carboxamide], for which the IC50 was at most 0.1 µM.

As for `NCCNc1ncc(C(N)=O)c(Nc2ccc3ccccc3c2)n1` [2-(2-aminoethylamino)-4-(2-naphthylamino)pyrimidine-5-carboxamide], the IC50 is at most 0.1 µM.

As for `NC(=O)c1cnc(NC2CCCCC2N)nc1Nc1cc(Cl)cc(Cl)c1` (stereo not drawn) [2-(cis-2-aminohexylamino)-4-(3,5-dichloroanilino)pyrimidine-5-carboxamide dihydrochloride], the IC50 is at most 0.1 µM.
